One data set concerns canine cardiac PDE, CAM. Nature of the data set: Canine cardiac PDE inhibition, CAM. To be noted: n in table. Format: biochemical.
The next data set addresses T1, canine cardiac PDE, CGI (Canis lupus familiaris, UniProt A0A8I3NYE0).
T1 construct: CANINE CARDIAC PDE; from tissue; host or cells: dog heart
T1 sequence (A0A8I3NYE0 1-1135): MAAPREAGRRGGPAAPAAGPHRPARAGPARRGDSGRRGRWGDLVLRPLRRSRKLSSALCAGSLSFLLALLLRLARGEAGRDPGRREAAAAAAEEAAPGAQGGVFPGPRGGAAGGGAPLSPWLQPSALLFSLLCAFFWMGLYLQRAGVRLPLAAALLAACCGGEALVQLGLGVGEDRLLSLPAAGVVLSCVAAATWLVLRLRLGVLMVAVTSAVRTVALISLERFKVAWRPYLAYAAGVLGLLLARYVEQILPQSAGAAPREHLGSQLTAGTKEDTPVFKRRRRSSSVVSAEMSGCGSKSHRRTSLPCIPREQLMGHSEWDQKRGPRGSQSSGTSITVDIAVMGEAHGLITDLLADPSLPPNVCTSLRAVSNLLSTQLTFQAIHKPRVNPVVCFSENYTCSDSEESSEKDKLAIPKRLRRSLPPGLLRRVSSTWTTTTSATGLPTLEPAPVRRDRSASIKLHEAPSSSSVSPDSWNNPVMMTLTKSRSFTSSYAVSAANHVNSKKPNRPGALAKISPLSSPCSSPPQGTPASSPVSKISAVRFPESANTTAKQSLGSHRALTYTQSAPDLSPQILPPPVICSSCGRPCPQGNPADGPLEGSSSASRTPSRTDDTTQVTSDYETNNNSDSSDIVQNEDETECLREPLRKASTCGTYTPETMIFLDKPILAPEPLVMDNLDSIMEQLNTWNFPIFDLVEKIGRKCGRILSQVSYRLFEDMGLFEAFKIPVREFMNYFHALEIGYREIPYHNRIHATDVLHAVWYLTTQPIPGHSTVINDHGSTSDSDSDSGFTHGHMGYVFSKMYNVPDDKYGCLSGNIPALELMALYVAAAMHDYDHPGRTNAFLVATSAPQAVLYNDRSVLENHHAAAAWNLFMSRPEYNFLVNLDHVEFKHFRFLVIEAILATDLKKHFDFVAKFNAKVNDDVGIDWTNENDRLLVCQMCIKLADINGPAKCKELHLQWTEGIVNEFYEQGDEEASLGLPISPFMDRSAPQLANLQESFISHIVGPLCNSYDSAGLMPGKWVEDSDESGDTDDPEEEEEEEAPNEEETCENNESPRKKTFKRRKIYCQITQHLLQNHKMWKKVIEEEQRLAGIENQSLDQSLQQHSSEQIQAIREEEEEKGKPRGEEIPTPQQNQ
Nature of the data set: Canine cardiac PDE inhibition, CGI. Format: biochemical. To be noted: n in table.

The next data set relates to anaesthetised dog. Nature of the data set: Cardiotonic activity in the dog (haemodynamics). To be noted: i.v. Format: in vivo, dog (male Beagle).
The test system of data set [1] is canine cardiac myofibrillar Ca++-dependent Mg++-ATPase. Nature of the data set: Measurement of myofibrillar Ca++-dependent Mg++-ATPase activity on canine cardiac myofibrils. Format: biochemical. The note with it: pH 7.0, 21° C.; for max (percent change of maximal ATPase activity): pCa=5.47.
Data set [2] is described as follows: Stability in presence of air. Format: physicochemical. To be noted: free base. Here is the method: However, the compounds can usually be stabilised by converting them to a salt form.
1 g (2.8mmol) 1,3-Dihydro-5-(3,6-dihydro-6-methyl-2-oxo-2H -1,3,4-thiadiazin-5-yl)-3-phenylimino-2H-indol-2-one (E6) and 1.87 g (28mmol) powdered zinc in 20 ml glacial acetic acid were refluxed for 10 minutes. The excess of zinc was removed by filtration and washed with acetic acid. 100 ml water were added to the filtrate and the precipitate was filtered, washed with water until neutral, and dried under vacuum. […] The crystals of the free base were suspended in a 1/5 mixture of methanol/ethyl ether (30 ml) and about 5 ml of a saturated solution of HCl gas in ethyl ether were added. After 1 hour of stirring, the white precipitate was filtered off, washed with ether and dried.

Data on 2 molecules can be found in patent publication US5051417A, “Indolythiadiazines for treating heart failure” (Les Laboratoires Beecham S.A., priority 1988, dated 1991).

Structures are written as SMILES.

A word on the IC50: it is the concentration at which inhibition is half-maximal. A higher IC50 goes with a need for much substance. The molecule `CC1SC(=O)NN=C1c1ccc2c(c1)C(=NO)C(=O)N2` (centres unmarked) [Example 1, 1,3-Dihydro-5-(3,6-dihydro-6-methyl-2-oxo-2H-1,3,4-thiadiazin-5-yl)-3-hydroxyimino-2H-indol-2-one] gave an IC50 in the data set on canine cardiac PDE, CAM of 7.9 µM. At canine cardiac PDE, CGI, this molecule registered a half-maximal inhibitory concentration (IC50) of 0.66 µM. For the same molecule, in the data set on anaesthetised dog (0.1 mg/kg), the AoBF result was “+8%”, the AoBP entry is recorded as “+4%”, the H.R. entry is “+13%” and the “dP/dt Max” value is “+31%”. In the data set on anaesthetised dog (0.3 mg/kg), the AoBF result is on record as “+16%”, the AoBP is reported as -9%, the H.R. entry is given as “+30%” and the “dP/dt Max” value is given as “+54%”. In the data set with anaesthetised dog (1.0 mg/kg), the AoBF result is “+33%”, the AoBP was -20%, the H.R. entry is given as “+55%” and the “dP/dt Max” value is reported as 128%. Moreover, in data set [1] (10 μM), the “max (percent change of maximal ATPase activity)” value was “+5 ± 0%” and the “pCa (shift of the pCa giving 50% of the maximal control ATPase activity; Ca++ sensitivity)” value is on record as 0.19 ± 0.09. In data set [1] (30 μM), the “max (percent change of maximal ATPase activity)” value is listed as “+1 ± 2%” and the “pCa (shift of the pCa giving 50% of the maximal control ATPase activity; Ca++ sensitivity)” value is given as 0.25 ± 0.07.

`CC1SC(=O)NN=C1c1ccc2c(c1)C(Nc1ccccc1)C(=O)N2.Cl` (centres unmarked) [Example 8, 1,3-Dihydro-5-(3,6-dihydro-6-methyl-2-oxo-2H-1,3,4-thiadiazin-5-yl)-3-phenylamino-2H-indol-2-one, hydrochloride]: the “stability in presence of air” value in data set [2] is listed as “reverts to the starting material in presence of air”. The molecule also showed an IC50 with canine cardiac PDE, CAM of 19 µM. Inhibition against canine cardiac PDE, CGI was half-maximal at 1.2 µM (IC50). In data set [1] (30 μM), the “max (percent change of maximal ATPase activity)” value was 2 ± 3% and the “pCa (shift of the pCa giving 50% of the maximal control ATPase activity; Ca++ sensitivity)” value is “+0.87 ± 0.01”.
